Measurements reported in ChEMBL document CHEMBL1909546, “Antiviral activity of novel 2'-fluoro-6'-methylene-carbocyclic adenosine against wild-type and drug-resistant hepatitis B virus mutants” (Bioorg Med Chem Lett, 2011).

Key:
[1] = tested on: Hepatitis B virus; test: Ratio of adefovir EC90 to compound EC90 for wild type Hepatitis B virus; format: functional
[2] = tested on: Hepatitis B virus; test: Antiviral activity against lamivudine-resistant Hepatitis B virus harboring reverse transcriptase M204I mutant infected in human HepG2(2.2.15) cells assessed as reduction of infectious virus titer treated daily for 9 days by quantitative Southern blot hybridization assay; format: functional; details: HepG2 2.2.15, 216 h
[3] = tested on: Hepatitis B virus; test: Antiviral activity against adefovir-resistant Hepatitis B virus harboring reverse transcriptase N236T mutant infected in human HepG2(2.2.15) cells assessed as reduction of infectious virus titer treated daily for 9 days by quantitative Southern blot hybridization assay; format: functional; details: HepG2 2.2.15, 216 h
[4] = Cytotoxicity against human HepG2(2.2.15) cells after 24 hrs by neutral red dye uptake assay; format: cell-based
[5] = Stability of the compound assessed as resistance to calf thymus adenosine deaminase; format: ADME; details: cattle
[6] = tested on: Hepatitis B virus; test: Antiviral activity against lamivudine-resistant Hepatitis B virus harboring reverse transcriptase M204I mutant infected in human HepG2(2.2.15) cells assessed as inhibition of virus replication treated daily for 9 days by quantitative blot hybridization method; format: functional, organism-based; details: HepG2 2.2.15, 216 h
[7] = tested on: Hepatitis B virus; test: Antiviral activity against adefovir-resistant Hepatitis B virus harboring reverse transcriptase N236T mutant infected in human HepG2(2.2.15) cells assessed as inhibition of virus replication treated daily for 9 days by quantitative blot hybridization method; format: functional, organism-based; details: HepG2 2.2.15, 216 h
[8] = tested on: Hepatitis B virus; test: Ratio of Lamivudine EC90 to compound EC90 for Lamivudine-resistant Hepatitis B virus harboring reverse transcriptase L180M mutant; format: functional
[9] = tested on: Hepatitis B virus; test: Fold resistance, ratio of EC90 for lamivudine-resistant Hepatitis B virus harboring reverse transcriptase M204I mutant to EC90 for wild type Hepatitis B virus; format: functional
[10] = tested on: Hepatitis B virus; test: Fold resistance, ratio of EC90 for lamivudine-resistant Hepatitis B virus harboring reverse transcriptase L180M/M204V double mutant to EC90 for wild type Hepatitis B virus; format: functional
[11] = tested on: Hepatitis B virus; test: Antiviral activity against lamivudine/entecavir-resistant Hepatitis B virus harboring reverse transcriptase L180M/M204V/S202G infected in human HepG2(2.2.15) cells assessed as inhibition of virus replication treated daily for 9 days by quantitative blot hybridization method; format: functional, organism-based; details: HepG2 2.2.15, 216 h
[12] = tested on: Hepatitis B virus; test: Antiviral activity against lamivudine-resistant Hepatitis B virus harboring reverse transcriptase L180M/M204V double mutant infected in human HepG2(2.2.15) cells assessed as inhibition of virus replication treated daily for 9 days by quantitative blot hybridization method; format: functional, organism-based; details: HepG2 2.2.15, 216 h
[13] = tested on: Hepatitis B virus; test: Antiviral activity against lamivudine-resistant Hepatitis B virus harboring reverse transcriptase L180M mutant infected in human HepG2(2.2.15) cells assessed as inhibition of virus replication treated daily for 9 days by quantitative blot hybridization method; format: functional, organism-based; details: HepG2 2.2.15, 216 h
[14] = tested on: Hepatitis B virus; test: Antiviral activity against lamivudine-resistant Hepatitis B virus harboring reverse transcriptase M204V mutant infected in human HepG2(2.2.15) cells assessed as reduction of infectious virus titer treated daily for 9 days by quantitative Southern blot hybridization assay; format: functional; details: HepG2 2.2.15, 216 h
[15] = tested on: Hepatitis B virus; test: Fold resistance, ratio of EC90 for lamivudine-resistant Hepatitis B virus harboring reverse transcriptase L180M mutant to EC90 for wild type Hepatitis B virus; format: functional
[16] = tested on: Hepatitis B virus; test: Ratio of adefovir EC90 to compound EC90 for adefovir-resistant Hepatitis B virus harboring reverse transcriptase N236T mutant; format: functional
[17] = tested on: Hepatitis B virus; test: Antiviral activity against lamivudine-resistant Hepatitis B virus harboring reverse transcriptase L180M mutant infected in human HepG2(2.2.15) cells assessed as reduction of infectious virus titer treated daily for 9 days by quantitative Southern blot hybridization assay; format: functional; details: HepG2 2.2.15, 216 h
[18] = tested on: Hepatitis B virus; test: Antiviral activity against lamivudine-resistant Hepatitis B virus harboring reverse transcriptase M204V mutant infected in human HepG2(2.2.15) cells assessed as inhibition of virus replication treated daily for 9 days by quantitative blot hybridization method; format: functional, organism-based; details: HepG2 2.2.15, 216 h
[19] = tested on: Hepatitis B virus; test: Fold resistance, ratio of EC90 for adefovir-resistant Hepatitis B virus harboring reverse transcriptase N236T mutant to EC90 for wild type Hepatitis B virus; format: functional
[20] = tested on: Hepatitis B virus; test: Fold resistance, ratio of EC90 for lamivudine-resistant Hepatitis B virus harboring reverse transcriptase M204V mutant to EC90 for wild type Hepatitis B virus; format: functional
[21] = tested on: Hepatitis B virus; test: Antiviral activity against wild type Hepatitis B virus infected in human HepG2(2.2.15) cells assessed as reduction of infectious virus titer treated daily for 9 days by quantitative Southern blot hybridization assay; format: functional; details: HepG2 2.2.15, 216 h
[22] = tested on: Hepatitis B virus; test: Antiviral activity against wild type Hepatitis B virus infected in human HepG2(2.2.15) cells assessed as inhibition of virus replication treated daily for 9 days by quantitative blot hybridization method; format: functional, organism-based; details: HepG2 2.2.15, 216 h
[23] = tested on: Hepatitis B virus; test: Ratio of adefovir EC50 to compound EC50 for adefovir-resistant Hepatitis B virus harboring reverse transcriptase N236T mutant; format: functional
[24] = tested on: Hepatitis B virus; test: Antiviral activity against lamivudine-resistant Hepatitis B virus harboring reverse transcriptase L180M/M204V double mutant infected in human HepG2(2.2.15) cells assessed as reduction of infectious virus titer treated daily for 9 days by quantitative Southern blot hybridization assay; format: functional; details: HepG2 2.2.15, 216 h

| Structure (SMILES) | EC90 [2] | EC90 [3] | CC50 at 24 h [4] | EC50 [6] | EC50 [7] | Ratio [9] | Ratio [10] | EC50 [11] | EC50 [12] | EC50 [13] | EC90 [14] | Ratio [15] | EC90 [17] | EC50 [18] | Ratio [19] | Ratio [20] | EC90 [21] | EC50 [22] | EC90 [24] | other results |
| --- | --- | --- | --- | --- | --- | --- | --- | --- | --- | --- | --- | --- | --- | --- | --- | --- | --- | --- | --- | --- |
| C=C1[C@@H](n2cnc3c(N)ncnc32)[C@@H](F)[C@H](O)[C@H]1CO | 5 µM | 4.6 µM | > 100 µM | 1 µM | 1.7 µM | 1.1 | 1.2 | 0.67 µM | 2.2 µM | 2.1 µM | 4.7 µM | 1.1 | 5.1 µM | 1.8 µM | 1 | 1 | 4.5 µM | 1.5 µM | 5.5 µM | Ratio [1]: 1.5; Stability [5]: Stable; Ratio [8]: 4.3; Ratio [16]: 7.8; Ratio EC50 [23]: 4.5 |
| Nc1ncnc2c1ncn2CCOCP(=O)(O)O [ADEFOVIR] | 8 µM | 36 µM | – | 1.9 µM | 7.8 µM | 1.1 | 1.2 | – | 2.1 µM | 5.5 µM | 7 µM | 1.1 | 7.7 µM | 1.6 µM | 5.1 | 1 | 7.1 µM | 1.3 µM | 8.5 µM | – |
| C=C1[C@H](CO)[C@@H](O)C[C@@H]1n1cnc2c(=O)[nH]c(N)nc21 [ENTECAVIR] | – | – | 28 µM | – | – | – | – | 1.2 µM | – | – | – | – | – | – | – | – | 0.033 µM | 0.008 µM | – | – |
| Nc1ccn([C@@H]2CS[C@H](CO)O2)c(=O)n1 [LAMIVUDINE] | > 100 µM | 0.9 µM | – | > 100 µM | – | >166 | >166 | > 500 µM | > 100 µM | 1.5 µM | > 100 µM | 36.7 | 22 µM | > 100 µM | 1.5 | >166 | 0.6 µM | – | > 100 µM | – |
